In ChEMBL document CHEMBL2163201, “Discovery of novel pyrrolopyridazine scaffolds as transient receptor potential vanilloid (TRPV1) antagonists” (Bioorg Med Chem Lett, 2012):
Converted amounts (≈) assume the structure as drawn.

Assay: Equilibrium solubility of the compound in DMSO preincubated for 4 hrs
Assay type: physicochemical
Details: not given

solubility at 4 h [µM] | Structure (SMILES)
340 (≈ 115 µg/mL) | CCN(CCO)C(=O)c1cc2cccnn2c1-c1cccc(OC)c1
28 (≈ 11 µg/mL) | CCN(CCO)C(=O)c1cc2ccc(C)nn2c1-c1cccc(C(F)(F)F)c1
190 (≈ 74.4 µg/mL) | CCN(CCO)C(=O)c1cc2cc(C)cnn2c1-c1cccc(C(F)(F)F)c1
25 (≈ 10.2 µg/mL) | CCN(CCO)C(=O)c1cc2cc(OC)cnn2c1-c1cccc(C(F)(F)F)c1
> 400 | COc1ccc(-c2c(C(=O)N3CCC[C@H]3CO)cc3cccnn23)cc1
200 (≈ 75.5 µg/mL) | CCN(CCO)C(=O)c1cc2cccnn2c1-c1cccc(C(F)(F)F)c1
> 400 | CCN(CCO)C(=O)c1oc2cccnc2c1-c1cccc(C(F)(F)F)c1
> 300 | CCN(CCO)C(=O)c1cc2cccnc2n1-c1cccc(C(F)(F)F)c1
270 (≈ 102 µg/mL) | CCN(CCO)C(=O)c1nc2ccccn2c1-c1cccc(C(F)(F)F)c1
240 (≈ 90.6 µg/mL) | CCN(CCO)C(=O)c1cc2ccncn2c1-c1cccc(C(F)(F)F)c1
24 (≈ 9.08 µg/mL) | CCN(CCO)C(=O)c1nc2cccnc2n1-c1cccc(C(F)(F)F)c1
330 (≈ 107 µg/mL) | CCN(CCO)C(=O)c1cc2cccnn2c1-c1cccc(C)c1
22 (≈ 8.3 µg/mL) | CCN(CCO)C(=O)c1cc2cccnn2c1-c1ccc(C(F)(F)F)cc1
170 (≈ 66.5 µg/mL) | CCN(CCO)C(=O)c1cc2cccnn2c1Cc1cccc(C(F)(F)F)c1
25 (≈ 10.7 µg/mL) | CCN(CCO)C(=O)c1cc2cccnn2c1-c1cccc(C(=O)Nc2ccccc2)c1
360 (≈ 140 µg/mL) | O=C(c1cc2cccnn2c1-c1cccc(C(F)(F)F)c1)N1CCC[C@H]1CO
150 (≈ 62 µg/mL) | CCN(Cc1ccn[nH]1)C(=O)c1cc2cccnn2c1-c1cccc(C(F)(F)F)c1
220 (≈ 88.7 µg/mL) | O=C(Cc1cc2cccnn2c1-c1cccc(C(F)(F)F)c1)N1CCC[C@@H]1CO
32 (≈ 12.5 µg/mL) | CCN(CCO)C(=O)c1cc2c(C)ccnn2c1-c1cccc(C(F)(F)F)c1
280 (≈ 90.3 µg/mL) | CCCN(CCO)C(=O)c1cc2ccccn2c1-c1ccccc1
260 (≈ 83.8 µg/mL) | CCN(CCO)C(=O)c1cc2ccccn2c1-c1cccc(C)c1
150 (≈ 50.8 µg/mL) | CCN(CCO)C(=O)c1cc2ccccn2c1-c1cccc(OC)c1
190 (≈ 64.5 µg/mL) | CCN(CCO)C(=O)c1cc2ccccn2c1-c1cccc(OC)n1
360 (≈ 136 µg/mL) | CCN(CCO)C(=O)c1cc2ccccn2c1-c1cccc(C(F)(F)F)n1
260 (≈ 94.8 µg/mL) | COc1cccc(-c2c(C(=O)N3CCCCC3CO)cc3ccccn23)c1 (stereo unspecified)
250 (≈ 89.9 µg/mL) | N#Cc1cccc(-c2c(C(=O)N3CCCCC3CO)cc3ccccn23)c1 (stereo unspecified)

Assay: Apparent permeability across apical to basolateral side of human Caco2 cells
Assay type: ADME, cell-based
Details: Caco-2

Papp A→B [×10⁻⁶ cm/s] | Structure (SMILES)
42 | CCN(CCO)C(=O)c1cc2cccnn2c1-c1cccc(C(F)(F)F)c1
60 | CCCN(CCO)C(=O)c1cc2ccccn2c1-c1ccccc1
54 | CCN(CCO)C(=O)c1cc2ccccn2c1-c1cccc(OC)c1
56 | CCN(CCO)C(=O)c1cc2ccccn2c1-c1cccc(OC)n1
58 | COc1cccc(-c2c(C(=O)N3CCCCC3CO)cc3ccccn23)c1 (stereo unspecified)
